Reference: patent US20190111055A1, “USE OF PHARMACEUTICAL COMPOSITION FOR THE TREATMENT OF SKIN ERYTHEMA IN POIKILODERMAS” (priority 2016, published 2019)

Experiments:
[1] = tested on: skin lesions of Poikiloderma of Civatte
Text: FIG. 1 represents the delimited area of the patient's skin to be treated with a composition described in this document, containing an alpha-adrenergic agonist, namely brimonidine gel 0.33%, prior to applying the medicine.
FIG. 2 represents the area of the patient's skin to be treated with the composition mentioned above, immediately after applying the medicine.
Drawing 1 represents the area selected and marked with white pencil for applying a product containing the alpha-adrenergic agonist brimonidine at 0.33% on skin lesions of Poikiloderma of Civatte; this drawing represents the area prior to application. Drawing 2 represents the moment immediately after applying the composition, which was restricted to the small area marked on the skin of the patient.

[2] = clinical studies for acute erythema or diseases such as rosacea; cited from earlier work

## Brc1c(NC2=NCCN2)ccc2nccnc12 [brimonidine]
[1]; brimonidine at 0.33%, topical, marked skin area, 40 minutes after applying
  color of the skin affected by Poikiloderma of Civatte: effective improvement in the color of the skin
[1]; topical application of the product
  redness of the Poikiloderma of Civatte erythema: visibly improves the redness
[2]
  adverse events (most common: erythema, redness, burning sensation, contact dermatitis): less than or equal to 1%
